Reference: paper PMC10212518 (Biochemical Journal, 2023)

Legend:
wild-type MDF cells = experiment: FACS cell death assay (PI uptake by flow cytometry) after necroptotic stimulus; type: cell-based, mouse; conditions: for inhibition of TSQ-induced necroptosis (PI uptake, flow cytometry): TSQ 24 h, control comparison at concentrations >1 µM
Description: In the first protocol, WT MDF cells were seeded at 1.0 × 10^5 cells per well in 24-well plates and allowed to settle for 4 h at 37°C 10% CO2. […] After 24 h, cells were harvested, stained with 1 µg/ml propidium iodide (PI; Sigma–Aldrich) and PI positive cells were quantified by flow cytometry on a BD FACSCalibur instrument. In the second protocol, WT MDF cells were seeded at 5.0 × 10^4 cells in 500 µl per well in 24-well plates (Falcon, cat #353047) and allowed to settle for 24 h at 37°C 10% CO2. […] For all compounds and reagents, 0.5 µl of 1000× stocks were used. Cells were harvested, stained with 2 µg/ml propidium iodide (PI; Sigma–Aldrich) and PI positive cells were quantified by flow cytometry on a BD FACSCalibur instrument.

[1] = tested on: TNF-induced sterile sepsis; set-up: method as in earlier work; conditions: mice; ref 56 (Yu et al.); cited from earlier work
[2] = tested on: MDF cells expressing the MLKL Q343A mutant; experiment: Phenotypic screen: MLKL Q343A-induced cell death, CellTiter-Glo cell viability; type: cell-based, mouse; conditions: 1 µM; wild-type or Mlkl−/− MDF cells; doxycycline 1 µg/ml
Description: The phenotypic screen was performed as previously described. Briefly, 5632 compounds from an in-house (WEHI) small molecule library and 40 well-characterised kinase inhibitors were screened against MDF cells expressing the MLKL Q343A mutant. For the 5632 compounds from the WEHI library, 384-well white clear-bottom plates (Corning) containing the compounds (10 µM) were prepared at Compounds Australia. WT MDF cells expressing MLKL Q343A were seeded at 2.0 × 10^3 cells per well into the plates using the Nanodrop Nano-Dispensing Liquid Handler (Gilson) and incubated with the compounds for 2 h, prior to the addition of doxycycline (1 µg/ml) to induce expression of the MLKL Q343A protein. After 24 h, cell viability was determined using the CellTiter-Glo Assay (Promega) by measuring luminescence using an EnVision plate reader (PerkinElmer). For the 40 kinase inhibitors, WT and Mlkl^−/− MDF cells expressing MLKL Q343A were seeded at 5.0 × 10^3 cells per well in 96-well plates and allowed to settle for ∼6 h at 37°C 10% CO2. […] After 18 h, cell viability was determined using the CellTiter-Glo Assay (Promega) by measuring luminescence using an EnVision plate reader (PerkinElmer). Raw luminescence data were normalised to the uninduced (no doxycycline) controls (100% cell viability) using GraphPad Prism.

[3] = biological target: T1, human RIPK3 kinase domain (Homo sapiens, UniProt Q9Y572); experiment: DiscoverX KINOMEscan competition binding assay (KdELECT); conditions: tested up to 30 µM
T1 construct: human MLKL (full-length), RIPK1 (kinase domain) and RIPK3 (kinase domain); purchased DiscoverX KINOMEscan (KdELECT service)
T1 sequence (Q9Y572 21-287 limits assumed): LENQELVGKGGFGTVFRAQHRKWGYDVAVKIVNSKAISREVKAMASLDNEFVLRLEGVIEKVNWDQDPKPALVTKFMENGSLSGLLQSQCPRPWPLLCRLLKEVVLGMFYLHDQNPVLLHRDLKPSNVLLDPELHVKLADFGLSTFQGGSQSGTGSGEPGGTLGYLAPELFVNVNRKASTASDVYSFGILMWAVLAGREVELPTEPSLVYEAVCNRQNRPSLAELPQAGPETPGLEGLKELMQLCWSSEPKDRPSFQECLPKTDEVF

SMILES	inhibition of TSQ-induced necroptosis (PI uptake, flow cytometry) (wild-type MDF cells)	inhibition of TSZ-induced necroptosis (PI uptake, flow cytometry) (wild-type MDF cells; TSZ 24 h)	protection from TNF-induced sterile sepsis [1]	inhibition of necroptosis induced by expression of MLKL Q343A (cell viability, CellTiter-Glo) [2]	Kd [3]
Cc1ccc(F)c(NC(=O)Nc2ccc(-c3cccc4[nH]nc(N)c34)cc2)c1 [ABT-869, N-(4-(3-amino-1H-indazol-4-yl)phenyl)-N'-(2-fluoro-5-methylphenyl)urea]	concentration-dependent inhibition of necroptotic cell death	concentration-dependent inhibition of necroptotic cell death	confer protection in mice from TNF-induced sterile sepsis	attenuated necroptosis	
Nc1n[nH]c2cccc(-c3ccc(NC(=O)Nc4ccccc4)cc3)c12 [WEHI-615]	less potent inhibition of TSQ-induced necroptosis than ABT-869				> 30 µM
